Tested on: KM mice
Test: Test for drug-induced disappearance of righting reflex in mice
Type: in vivo
Settings: single rapid bolus via tail vein
In short: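 Female KM mice (18–25 g), randomly grouped, given a single rapid bolus via tail vein. Latency (administration to loss of righting reflex) and duration (loss to recovery) recorded.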

| Structure (SMILES) | Duration (60 mg/kg) [min] | Latency (60 mg/kg) [min] | Duration (30 mg/kg) [min] | Latency (30 mg/kg) [min] | Duration (15 mg/kg) [min] | Latency (15 mg/kg) [min] |
| --- | --- | --- | --- | --- | --- | --- |
| COC(=O)CC[C@@H]1N=C(c2ccccc2F)c2cc(Cl)ccc2-n2c(SCCCN(C)C)nnc21 [Compound 57, methyl (S)-3-(8-chloro-1-((3-(dimethylamino)propyl)thio)-6-(2-fluorophenyl)-4H-benzo[f][1,2,4]triazolo[4,3-a][1,4]diazepin-4-yl)propionate] | 5.89 | 0.31 |  |  |  |  |
| CCCSc1nnc2n1-c1ccc(Cl)cc1C(c1ccccc1F)=N[C@H]2CCC(=O)OC [Compound 14, methyl (S)-3-(8-chloro-6-(2-fluorophenyl)-1-(propylthio)-4H-benzo[f][1,2,4]triazolo[4,3-a][1,4]diazepin-4-yl)propionate] |  |  | 9.12 | 0.78 |  |  |
| COC(=O)CC[C@@H]1N=C(c2ccccn2)c2cc(Br)ccc2-n2c(SCCN3CCOCC3)nnc21 [Compound 117, methyl (S)-3-(8-bromo-6-(pyridin-2-yl)-1-((2-morpholinoethyl)thio)-4H-benzo[f][1,2,4]triazolo[4,3-a][1,4]diazepin-4-yl)propionate] |  |  | 2.03 | 0.14 |  |  |
| C#CCSc1nnc2n1-c1ccc([N+](=O)[O-])cc1C(c1ccccc1F)=N[C@H]2CCC(=O)OC [Compound 50, methyl (S)-3-(8-nitro-6-(2-fluorophenyl)-1-(prop-2-yn-1-ylthio)-4H-benzo[f][1,2,4]triazolo[4,3-a][1,4]diazepin-4-yl)propionate] |  |  | 15.27 | 0.93 |  |  |
| COC(=O)CC[C@@H]1N=C(c2ccccc2)c2cc(Cl)ccc2-n2c(S)nnc21 [Compound 7, methyl (S)-3-(8-chloro-6-phenyl-1-mercapto-4H-benzo[f][1,2,4]triazolo[4,3-a][1,4]diazepin-4-yl)propionate] |  |  | 12.26 | 1.14 |  |  |
| COC(=O)CC[C@@H]1N=C(c2ccccc2)c2cc([N+](=O)[O-])ccc2-n2c(SCCN3CCOCC3)nnc21 [Compound 107, methyl (S)-3-(8-nitro-1-((2-morpholinoethyl)thio)-6-phenyl-4H-benzo[f][1,2,4]triazolo[4,3-a][1,4]diazepin-4-yl)propionate] |  |  | 13.64 | 0.45 |  |  |
| COC(=O)CC[C@@H]1N=C(c2ccccc2F)c2cc(Br)ccc2-n2c(SCC3CC3)nnc21 [Compound 46, methyl (S)-3-(8-bromo-1-((cyclopropylmethyl)thio)-6-(2-fluorophenyl)-4H-benzo[f][1,2,4]triazolo[4,3-a][1,4]diazepin-4-yl)propionate] |  |  | 10.83 | 0.69 |  |  |
| COC(=O)CC[C@@H]1N=C(c2ccccc2F)c2cc(Br)ccc2-n2c(SCCN3CCC(F)(F)CC3)nnc21 [Compound 128] |  |  | 7.98 | 0.42 |  |  |
| COC(=O)CC[C@@H]1N=C(c2ccccc2F)c2cc(Br)ccc2-n2c(SCCCN3CCN(CCO)CC3)nnc21 [Compound 67, methyl (S)-3-(8-bromo-6-(2-fluorophenyl)-1-((3-(4-(2-hydroxyethyl)piperazin-1-yl)propyl)thio)-4H-benzo[f][1,2,4]triazolo[4,3-a][1,4]diazepin-4-yl)propionate] |  |  | 11.37 | 0.84 |  |  |
| COC(=O)CC[C@@H]1N=C(c2ccccc2F)c2cc(Br)ccc2-n2c(SCCCN(C)C)nnc21 [Compound 58, methyl (S)-3-(8-bromo-1-((3-(dimethylamino)propyl)thio)-6-(2-fluorophenyl)-4H-benzo[f][1,2,4]triazolo[4,3-a][1,4]diazepin-4-yl)propionate] | 11.17 | 0.33 | 7.76 | 0.25 |  |  |
| COC(=O)CC[C@@H]1N=C(c2ccccc2)c2cc(Cl)ccc2-n2c1n[nH]c2=S [Tautomer of compound 7, methyl (S)-3-(8-chloro-6-phenyl-1-thio-2,4-dihydro-1H-benzo[f][1,2,4]triazolo[4,3-a][1,4]diazepin-4-yl)propionate] |  |  | 9.22 | 0.95 |  |  |
| COC(=O)CC[C@@H]1N=C(c2ccccc2F)c2cc(Br)ccc2-n2c(SCCN3CCN(C)CC3)nnc21 [Compound 61, methyl (S)-3-(8-bromo-6-(2-fluorophenyl)-1-((2-(4-methylpiperazin-1-yl)ethyl)thio)-4H-benzo[f][1,2,4]triazolo[4,3-a][1,4]diazepin-4-yl)propionate] |  |  | 12.28 | 0.82 |  |  |
| CCN(C)C(=O)Sc1nnc2n1-c1ccc(Cl)cc1C(c1ccccc1Cl)=N[C@H]2CCC(=O)OC [Compound 142, methyl (S)-3-(8-chloro-6-(2-chlorophenyl)-1-((ethyl(methyl)carbamoyl)thio)-4H-benzo[f][1,2,4]triazolo[4,3-a][1,4]diazepin-4-yl)propionate] |  |  | 10.35 | 0.21 |  |  |
| COC(=O)CC[C@@H]1N=C(c2ccccc2Cl)c2cc([N+](=O)[O-])ccc2-n2c(SCN3CCOCC3)nnc21 [Compound 101, methyl (S)-3-(8-nitro-6-(2-chlorophenyl)-1-((morpholinomethyl)thio)-4H-benzo[f][1,2,4]triazolo[4,3-a][1,4]diazepin-4-yl)propionate] |  |  | 12.05 | 0.85 |  |  |
| COC(=O)CC[C@@H]1N=C(c2ccccc2Cl)c2cc(Cl)ccc2-n2c(SC(=O)N3CCN(C)CC3)nnc21 [Compound 130, methyl (S)-3-(8-chloro-6-(2-chlorophenyl)-1-(2-(4-methylpiperazine-1-carbonyl)thio)-4H-benzo[f][1,2,4]triazolo[4,3-a][1,4]diazepin-4-yl)propionate] |  |  | 18.27 | 0.52 |  |  |
| CCOC(=O)CC[C@@H]1N=C(c2ccccc2Cl)c2cc([N+](=O)[O-])ccc2-n2c(SC)nnc21 [Compound 44, ethyl (S)-3-(8-nitro-6-(2-chlorophenyl)-1-(methylthio)-4H-benzo[f][1,2,4]triazolo[4,3-a][1,4]diazepin-4-yl)propionate] |  |  | 16.27 | 1.28 |  |  |
| CCN(CC)CCCSc1nnc2n1-c1ccc(Cl)cc1C(c1ccccc1Cl)=N[C@H]2CCC(=O)OC [Compound 132, methyl (S)-3-(8-chloro-6-(2-chlorophenyl)-1-(3-((diethylamino)propyl)thio)-4H-benzo[f][1,2,4]triazolo[4,3-a][1,4]diazepin-4-yl)propionate] |  |  | 18.05 | 0.87 |  |  |
| COC(=O)CC[C@@H]1N=C(c2ccccc2F)c2cc(Cl)ccc2-n2c(SCCN)nnc21 [Compound 20, methyl (S)-3-(8-chloro-6-(2-fluorophenyl)-1-((2-aminoethyl)thio)-4H-benzo[f][1,2,4]triazolo[4,3-a][1,4]diazepin-4-yl)propionate] |  |  | 9.82 | 0.27 |  |  |
| COC(=O)CC[C@@H]1N=C(c2ccccc2Cl)c2cc(Cl)ccc2-n2c(SCCCN3CCN(CCO)CC3)nnc21 [Compound 96, methyl (S)-3-(8-chloro-6-(2-chlorophenyl)-1-((3-(4-(2-hydroxyethyl)piperazin-1-yl)propyl)thio)-4H-benzo[f][1,2,4]triazolo[4,3-a][1,4]diazepin-4-yl)propionate] |  |  | 7.98 | 0.49 |  |  |
| COC(=O)CC[C@@H]1N=C(c2ccccc2F)c2cc(Br)ccc2-n2c(SCCN3CCCCC3)nnc21 [Compound 123, methyl (S)-3-(8-bromo-6-(2-fluorophenyl)-1-(2-((piperidin-1-yl)ethyl)thio)-4H-benzo[f][1,2,4]triazolo[4,3-a][1,4]diazepin-4-yl)propionate] |  |  | 53.03 | 0.23 | 1.38 | 0.30 |
| COC(=O)CC[C@@H]1N=C(c2ccccc2F)c2cc(Br)ccc2-n2c(SCN3CCN(c4ccccc4)CC3)nnc21 [Compound 73, methyl (S)-3-(8-bromo-6-(2-fluorophenyl)-1-(((4-phenylpiperazin-1-yl)methyl)thio)-4H-benzo[f][1,2,4]triazolo[4,3-a][1,4]diazepin-4-yl)propionate] |  |  | 12.12 | 0.86 |  |  |
| CCSc1nnc2n1-c1ccc(Br)cc1C(c1ccccc1Cl)=N[C@H]2CCC(=O)OC [Compound 27, methyl (S)-3-(8-bromo-6-(2-chlorophenyl)-1-(ethylthio)-4H-benzo[f][1,2,4]triazolo[4,3-a][1,4]diazepin-4-yl)propionate] |  |  | 5.93 | 0.35 |  |  |
| COC(=O)CC[C@@H]1N=C(c2ccccc2Cl)c2cc(Cl)ccc2-n2c(SCC3=NCCN3)nnc21 [Compound 144, methyl (S)-3-(8-chloro-6-(2-chlorophenyl)-1-(((4,5-dihydro-1H-imidazol-2-yl)methyl)thio)-4H-benzo[f][1,2,4]triazolo[4,3-a][1,4]diazepin-4-yl)propionate] |  |  | 5.32 | 0.45 |  |  |
| COC(=O)CC[C@@H]1N=C(c2ccccc2F)c2cc([N+](=O)[O-])ccc2-n2c(SCCCN3CCN(CCO)CC3)nnc21 [Compound 68, methyl (S)-3-(8-nitro-6-(2-fluorophenyl)-1-((3-(4-(2-hydroxyethyl)piperazin-1-yl)propyl)thio)-4H-benzo[f][1,2,4]triazolo[4,3-a][1,4]diazepin-4-yl)propionate] | 15.02 | 0.68 |  |  |  |  |

Source: patent US20230416258A1, “BENZ[…], AND PREPARATION METHOD THEREFOR AND USE THEREOF” (CHINA PHARMACEUTICAL UNIVERSITY, priority 2020, published 2023)
